Source: US10647675B2 (priority 2015, dated 2020)
In brackets after ≈: the same amount, converted by molar mass.

Legend:
[1] = system: Trichophyton mentagrophytes SM-110; assay: Antifungal activity evaluation test: minimum inhibitory concentration (MIC), broth dilution by reference to CLSI M38-A2; format: cell-based; conditions: SM110, read-out: MIC (T. menta.)
Protocol: (§1) The minimum inhibitory concentration (MIC) for Trichophyton mentagrophytes and Trichophyton rubrum was measured by the following procedure by reference to Clinical and Laboratory standards Institute (CLSI) guidelines M38-A2. Reference document for the measurement method: National Committee for a Clinical Laboratory Standards. Reference method for broth dilution antifungal susceptibility testing of filamentous fungi. Approved standard Second edition M38-A2. Wayne, Pa.: National Committee for a Clinical Laboratory Standards, 2008. • Test compound solution: A test compound was dissolved in dimethyl sulfoxide (DMSO) at a concentration of 2.5 mg/mL to give a stock solution. The stock solution was appropriately diluted with DMSO to prepare a 2-fold dilution series. As control compounds, terbinafine and amorolfine were used. • Test strains: Trichophyton mentagrophytes SM-110 and Trichophyton rubrum KD-1130 were used. • Preparation of fungal culture to be inoculated: The above-mentioned test strain was suspended in 0.05% Tween 80-containing saline, and the fungi of the genus Trichophyton were prepared to a fungal concentration of 1×10^6 cells/mL by using a hemocytometer. Then, using MOPS-buffered RPMI 1640 medium (pH 7.0) as a test medium, a fungal culture of the fungi of the genus Trichophyton was diluted 250-fold (4×10^3 cells/mL) to give a fungal culture for inoculation. • MIC measurement of genus Trichophyton fungi: MOPS-buffered RPMI 1640 medium (pH 7.0) was dispensed by 100 μL to given wells of a 96 well U-bottom microplate. Then, the test compound solution (2 μL) was added, the mixture was sufficiently stirred by a plate mixer. The fungal culture (100 μL) was inoculated and the mixture was cultured at 35° C. for 4 days (final fungal concentration: 2×10^3 cells/mL). After the culture, the minimum drug concentration of a well in which a growth inhibitory action of not less than 80% was visually observed as compared to a growth control was taken as a minimum inhibitory concentration (MIC: μg/mL).
(§2) The abbreviations in the Tables mean the following fungi and compounds. • T. menta.: Trichophyton mentagrophytes • T. rubrum: Trichophyton rubrum • TBF: terbinafine • AMF: amorolfine

[2] = system: Trichophyton rubrum KD-1130; assay: as above; format: cell-based; conditions: KD1130, read-out: MIC (T. rubrum)
Protocol: as §1, §2

## COc1ccncc1-c1cccnc1Oc1ccc(C(C)(F)F)nc1 [I-90, 2-{[6-(1,1-difluoroethyl)pyridin-3-yl]oxy}-4′-methoxy-3,3′-bipyridine]
[1]
  MIC: 0.2 to 0.78 µg/mL (≈ 0.583 to 2.27 µM)
[2]
  MIC: 0.2 to 0.78 µg/mL (≈ 0.583 to 2.27 µM)

## COc1ncccc1-c1cccnc1Oc1ccc(C(F)F)c(C)c1 [I-456]
[1]
  MIC: ≤ 0.1 µg/mL
[2]
  MIC: ≤ 0.1 µg/mL

## COc1cc(-c2cncnc2Oc2cnc(C(F)F)c(C)c2)c(F)cc1F [I-325, 5-(2,4-difluoro-5-methoxyphenyl)-4-{[6-(difluoromethyl)-5-methylpyridin-3-yl]oxy}pyrimidine]
[1]
  MIC: ≤ 0.1 µg/mL
[2]
  MIC: ≤ 0.1 µg/mL

## CCc1ccc(Oc2ncccc2-c2cnccc2OC)cn1 [I-127, 2-[(6-ethylpyridin-3-yl)oxy]-4′-methoxy-3,3′-bipyridine]
[1]
  MIC: 1.56 to 6.25 µg/mL (≈ 5.08 to 20.3 µM)
[2]
  MIC: 1.56 to 6.25 µg/mL (≈ 5.08 to 20.3 µM)

## COc1cc(F)ccc1-c1cccnc1Oc1ccc(C(C)(F)F)nc1 [I-82]
[1]
  MIC: ≤ 0.1 µg/mL
[2]
  MIC: ≤ 0.1 µg/mL

## Cn1nc(-c2cccnc2Oc2ccc(C(F)(F)F)nc2)c2cccnc21 [I-47, 1-methyl-3-(2-{[6-(trifluoromethyl)pyridin-3-yl]oxy}pyridin-3-yl)-1H-pyrazolo[3,4-b]pryidine]
[1]
  MIC: 1.56 to 6.25 µg/mL (≈ 4.2 to 16.8 µM)
[2]
  MIC: 1.56 to 6.25 µg/mL (≈ 4.2 to 16.8 µM)

## CCOCCc1ccc(Oc2ncccc2-c2cccc3ccnn23)cc1 [I-412, 7-{2-[4-(2-ethoxyethyl)phenoxy]pyridin-3-yl}pyrazolo[1,5-a]pyridine]
[1]
  MIC: ≤ 0.1 µg/mL
[2]
  MIC: ≤ 0.1 µg/mL

## N#Cc1cnn2c(-c3cccnc3Oc3ccc(C(F)(F)F)nc3)cccc12 [I-54, 7-(2-{[6-(trifluoromethyl)pyridin-3-yl]oxy}pyridin-3-yl)-pyrazolo[1,5-a]pyridine-3-carbonitrile]
[1]
  MIC: 0.2 to 0.78 µg/mL (≈ 0.524 to 2.05 µM)
[2]
  MIC: 0.2 to 0.78 µg/mL (≈ 0.524 to 2.05 µM)

## COCC(F)(F)c1ccc(Oc2ncccc2-c2cc(Cl)ccc2OC)cn1 [I-163, 3-(5-chloro-2-methoxyphenyl)-2-{[6-(1,1-difluoro-2-methoxyethyl)pyridin-3-yl]oxy}pyridine]
[1]
  MIC: ≤ 0.1 µg/mL
[2]
  MIC: ≤ 0.1 µg/mL

## COc1ccccc1-c1cccnc1Oc1ccc(N(C)C)nc1 [I-365]
[1]
  MIC: ≤ 0.1 µg/mL
[2]
  MIC: 0.2 to 0.78 µg/mL (≈ 0.622 to 2.43 µM)

## CC(F)(F)c1ccc(Oc2ncccc2-c2ccccc2C(F)F)cn1 [I-86, 2-{[6-(1,1-difluoroethyl)pyridin-3-yl]oxy}-3-[2-(difluoromethyl)phenyl]pyridine]
[1]
  MIC: 0.2 to 0.78 µg/mL (≈ 0.552 to 2.15 µM)
[2]
  MIC: 0.2 to 0.78 µg/mL (≈ 0.552 to 2.15 µM)

## COc1ccccc1-c1cccnc1Oc1ccc(C(F)(F)F)cc1 [I-201, 3-(2-methoxyphenyl)-2-[4-(trifluoromethyl)phenoxy]pyridine]
[1]
  MIC: ≤ 0.1 µg/mL
[2]
  MIC: ≤ 0.1 µg/mL

## Cc1ccncc1-c1cccnc1Oc1ccc(C(F)(F)F)cc1 [I-206, 4′-methyl-2-[4-(trifluoromethyl)phenoxy]-3,3′-bipyridine]
[1]
  MIC: ≤ 0.1 µg/mL
[2]
  MIC: ≤ 0.1 µg/mL

## CCOC(=O)c1ccc(Oc2ncccc2-c2cnccc2OCC)cc1 [I-415, ethyl 4-{[4′-ethoxy-(3,3′-bipyridin)-2-yl]oxy}benzoate]
[1]
  MIC: ≤ 0.1 µg/mL
[2]
  MIC: ≤ 0.1 µg/mL

## COc1nc(C)ccc1-c1cccnc1Oc1ccc(C(F)(F)F)nc1 [I-29, 2-methoxy-6-methyl-2′-{[6-(trifluoromethyl)pyridin-3-yl]oxy}-3,3′-bipyridine]
[1]
  MIC: ≤ 0.1 µg/mL
[2]
  MIC: ≤ 0.1 µg/mL

## FC(F)(F)c1ccc(Oc2ncccc2-c2ccccc2OCC2CC2)cn1 [I-57, 3-[2-(cyclopropylmethoxy)phenyl]-2-{[6-(trifluoromethyl)pyridin-3-yl]oxy}pryidine]
[1]
  MIC: 0.2 to 0.78 µg/mL (≈ 0.518 to 2.02 µM)
[2]
  MIC: 0.2 to 0.78 µg/mL (≈ 0.518 to 2.02 µM)

## COc1cccc(-c2cccnc2Oc2ccc(C(F)(F)F)nc2)c1 [I-2, 3-(3-methoxyphenyl)-2-{[6-(trifluoromethyl)pyridin-3-yl]oxy}pyridine]
[1]
  MIC: ≤ 0.1 µg/mL
[2]
  MIC: ≤ 0.1 µg/mL

## COc1ccccc1-c1cccnc1Oc1ccc(C(F)(F)CO)nc1 [I-79, 2,2-difluoro-2-(5-{[3-(2-methoxyphenyl)pyridin-2-yl]oxy}pyridin-2-yl)ethanol]
[1]
  MIC: 0.2 to 0.78 µg/mL (≈ 0.558 to 2.18 µM)
[2]
  MIC: 1.56 to 6.25 µg/mL (≈ 4.35 to 17.4 µM)

## CC(F)(F)c1ccc(Oc2ncccc2-c2cncc3nccnc23)cn1 [I-111, 8-(2-{[6-(1,1-difluoroethyl)pyridin-3-yl]oxy}pyridin-3-yl)pyrido[3,4-b]pyrazine]
[1]
  MIC: 0.2 to 0.78 µg/mL (≈ 0.547 to 2.13 µM)
[2]
  MIC: 0.2 to 0.78 µg/mL (≈ 0.547 to 2.13 µM)

## COc1ccccc1-c1cccnc1Oc1cnc2c(c1)CCCCC2 [I-136, 3-{[3-(2-methoxyphenyl)pyridin-2-yl]oxy}-6,7,8,9-tetrahydro-5H-cyclohepta[b]pyridine]
[1]
  MIC: ≤ 0.1 µg/mL
[2]
  MIC: ≤ 0.1 µg/mL

## CCN(C)c1ccc(Oc2ncccc2-c2ccc(F)cc2OC)cn1 [I-367, N-ethyl-5-{[3-(4-fluoro-2-methoxyphenyl)pyridin-2-yl]oxy}-N-methylpyridin-2-amine]
[1]
  MIC: ≤ 0.1 µg/mL
[2]
  MIC: ≤ 0.1 µg/mL

## COc1ncccc1-c1cccnc1Sc1ccc(C(F)(F)F)cc1 [I-435]
[1]
  MIC: 0.2 to 0.78 µg/mL (≈ 0.552 to 2.15 µM)
[2]
  MIC: 0.2 to 0.78 µg/mL (≈ 0.552 to 2.15 µM)

## COCC1(c2ccc(Oc3ncccc3-c3cnccc3OC)cc2)CC1 [I-276, 4′-methoxy-2-{4-[1-(methoxymethyl)cyclopropyl]phenoxy}-3,3′-bipyridine]
[1]
  MIC: 0.2 to 0.78 µg/mL (≈ 0.552 to 2.15 µM)
[2]
  MIC: 0.2 to 0.78 µg/mL (≈ 0.552 to 2.15 µM)

## CC(F)(F)c1ccc(Oc2ncccc2-c2cncc(F)c2Cl)cn1 [I-97, 4′-chloro-2-{[6-(1,1-difluoroethyl)pyridin-3-yl]oxy}-5′-fluoro-3,3′-bipyridine]
[1]
  MIC: 0.2 to 0.78 µg/mL (≈ 0.547 to 2.13 µM)
[2]
  MIC: 0.2 to 0.78 µg/mL (≈ 0.547 to 2.13 µM)

## Cc1cc(Oc2ncncc2-c2cccc3c2OCC3)cnc1C(F)F [I-324]
[1]
  MIC: ≤ 0.1 µg/mL
[2]
  MIC: ≤ 0.1 µg/mL

## FC1(F)Oc2cccc(-c3cccnc3Oc3ccc(C(F)(F)F)nc3)c2O1 [I-39, 3-(2,2-difluorobenzo[1,3]dioxol-4-yl)-2-{[6-(trifluoromethyl)pyridin-3-yl]oxy}pyridine]
[1]
  MIC: ≤ 0.1 µg/mL
[2]
  MIC: 0.2 to 0.78 µg/mL (≈ 0.505 to 1.97 µM)

## COc1cc(-c2cncnc2Oc2ccc(C(F)(F)F)nc2)c(F)cc1F [I-329, 5-(2,4-difluoro-5-methoxyphenyl)-4-{[6-(trifluoromethyl)pyridin-3-yl]oxy}pyrimidine]
[1]
  MIC: ≤ 0.1 µg/mL
[2]
  MIC: ≤ 0.1 µg/mL

## C#Cc1ccc(Oc2ncccc2-c2cnccc2OC)cc1 [I-260, 2-(4-ethynylphenoxy)-4′-methoxy-3,3′-bipyridine]
[1]
  MIC: 0.2 to 0.78 µg/mL (≈ 0.662 to 2.58 µM)
[2]
  MIC: ≤ 0.1 µg/mL

## FC(F)(F)c1ccc(Oc2ncccc2-c2cccc3ccnn23)cn1 [I-44, 7-(2-{[6-(trifluoromethyl)pyridin-3-yl]oxy}pyridin-3-yl)-pyrazolo[1,5-a]pryidine]
[1]
  MIC: ≤ 0.1 µg/mL
[2]
  MIC: ≤ 0.1 µg/mL

## O=C1CCc2cccc(-c3cccnc3Oc3ccc(C(F)(F)F)nc3)c21 [I-40, 7-(2-{[6-(trifluoromethyl)pyridin-3-yl]oxy}pyridin-3-yl)-2,3-dihydro-1H-inden-1-one]
[1]
  MIC: 0.2 to 0.78 µg/mL (≈ 0.54 to 2.11 µM)
[2]
  MIC: 0.2 to 0.78 µg/mL (≈ 0.54 to 2.11 µM)

## Cc1ccncc1-c1cccnc1Oc1ccc(I)cc1 [I-426]
[1]
  MIC: ≤ 0.1 µg/mL
[2]
  MIC: ≤ 0.1 µg/mL

## COc1ccccc1-c1cccnc1Nc1ccc(C(F)(F)F)nc1 [I-313]
[1]
  MIC: ≤ 0.1 µg/mL
[2]
  MIC: ≤ 0.1 µg/mL

## CCOC(=O)COc1ncc(Oc2ncccc2-c2ccc(F)cc2OC)cn1 [I-196, ethyl 2-[(5-{[3-(4-fluoro-2-methoxyphenyl)pyridin-2-yl]oxy}-pyrimidin-2-yl)oxy]acetate]
[1]
  MIC: 0.2 to 0.78 µg/mL (≈ 0.501 to 1.95 µM)
[2]
  MIC: 0.2 to 0.78 µg/mL (≈ 0.501 to 1.95 µM)

## CC(F)(F)c1ccc(Oc2ncccc2-c2cccc3nccnc23)cc1 [I-308, 5-{2-[4-(1,1-difluoroethyl)-phenoxy]-3-yl}quinoxaline]
[1]
  MIC: ≤ 0.1 µg/mL
[2]
  MIC: ≤ 0.1 µg/mL

## COc1c(F)cncc1-c1cccnc1Oc1ccc(C(C)(F)F)nc1 [I-98, 2-{[6-(1,1-difluoroethyl)pyridin-3-yl]oxy}-5′-fluoro-4′-methoxy-3,3′-bipyridine]
[1]
  MIC: 0.2 to 0.78 µg/mL (≈ 0.554 to 2.16 µM)
[2]
  MIC: 0.2 to 0.78 µg/mL (≈ 0.554 to 2.16 µM)

## COCC(F)(F)c1ccc(Oc2ncccc2-c2ccccc2OC)cn1 [I-145, 2-{[6-(1,1-difluoro-2-methoxyethyl)pyridin-3-yl]oxy}-3-(2-methoxyphenyl)pyridine]
[1]
  MIC: ≤ 0.1 µg/mL
[2]
  MIC: ≤ 0.1 µg/mL

## CCOC(=O)CN(C)c1ccc(Oc2ncccc2-c2ccccc2OC)cn1 [I-344, ethyl 2-[(5-{[3-(2-methoxyphenyl)pyridin-2-yl]oxy}pyridin-2-yl)(methyl)amino]acetate]
[1]
  MIC: ≤ 0.1 µg/mL
[2]
  MIC: ≤ 0.1 µg/mL

## Cc1cnn2c(-c3cccnc3Oc3ccc(C(F)(F)F)nc3)cccc12 [I-53, 3-methyl-7-(2-{[6-(trifluoromethyl)pyridin-3-yl]oxy}pyridin-3-yl)-pyrazolo[1,5-a]pyridine]
[1]
  MIC: 0.2 to 0.78 µg/mL (≈ 0.54 to 2.11 µM)
[2]
  MIC: ≤ 0.1 µg/mL

## COCC(F)(F)c1ccc(Oc2ncccc2-c2ccc(F)cc2OC)cn1 [I-161, 2-{[6-(1,1-difluoro-2-methoxyethyl)pyridin-3-yl]oxy}-3-(4-fluoro-2-methoxyphenyl)pyridine]
[1]
  MIC: ≤ 0.1 µg/mL
[2]
  MIC: ≤ 0.1 µg/mL

## COc1ncccc1-c1cccnc1Oc1cnc(C2CC2)c(Cl)c1 [I-131, 2-[(5-chloro-6-cyclopropylpyridin-3-yl)oxy]-2′-methoxy-3,3′-bipyridine]
[1]
  MIC: 0.2 to 0.78 µg/mL (≈ 0.565 to 2.2 µM)
[2]
  MIC: 0.2 to 0.78 µg/mL (≈ 0.565 to 2.2 µM)
